In patent publication US20230303570A1, “KINASE INHIBITORS AND USES THEREOF” (ABM Therapeutics Corporation, priority 2020, published 2023) one finds IC50 data, which are given here for 16 molecules.

Each structure is given as a SMILES string.

Common to all, as to format: biochemical
One experiment deals with HPK1 (MAP4K1) (Homo sapiens, UniProt Q92918). Put plainly: HPK1 (MAP4K1) kinase Lantha screen assay. An outline of the steps:
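Recombinant MAP4K1 preincubated 10 min with compound (6-point dilution, duplicates) in 50 mM HEPES pH 7.5, 10 mM MgCl2, then reacted with Fluorescein-PKC substrate and ATP for 90 min at room temperature. Antibody detection solution stopped reaction; after 60 min, TR-FRET read at ex 340 nm, em 520/495 nm.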

The target in the next experiment is T1, Axl (Homo sapiens, UniProt P30530).
T1 sequence (P30530 26-894): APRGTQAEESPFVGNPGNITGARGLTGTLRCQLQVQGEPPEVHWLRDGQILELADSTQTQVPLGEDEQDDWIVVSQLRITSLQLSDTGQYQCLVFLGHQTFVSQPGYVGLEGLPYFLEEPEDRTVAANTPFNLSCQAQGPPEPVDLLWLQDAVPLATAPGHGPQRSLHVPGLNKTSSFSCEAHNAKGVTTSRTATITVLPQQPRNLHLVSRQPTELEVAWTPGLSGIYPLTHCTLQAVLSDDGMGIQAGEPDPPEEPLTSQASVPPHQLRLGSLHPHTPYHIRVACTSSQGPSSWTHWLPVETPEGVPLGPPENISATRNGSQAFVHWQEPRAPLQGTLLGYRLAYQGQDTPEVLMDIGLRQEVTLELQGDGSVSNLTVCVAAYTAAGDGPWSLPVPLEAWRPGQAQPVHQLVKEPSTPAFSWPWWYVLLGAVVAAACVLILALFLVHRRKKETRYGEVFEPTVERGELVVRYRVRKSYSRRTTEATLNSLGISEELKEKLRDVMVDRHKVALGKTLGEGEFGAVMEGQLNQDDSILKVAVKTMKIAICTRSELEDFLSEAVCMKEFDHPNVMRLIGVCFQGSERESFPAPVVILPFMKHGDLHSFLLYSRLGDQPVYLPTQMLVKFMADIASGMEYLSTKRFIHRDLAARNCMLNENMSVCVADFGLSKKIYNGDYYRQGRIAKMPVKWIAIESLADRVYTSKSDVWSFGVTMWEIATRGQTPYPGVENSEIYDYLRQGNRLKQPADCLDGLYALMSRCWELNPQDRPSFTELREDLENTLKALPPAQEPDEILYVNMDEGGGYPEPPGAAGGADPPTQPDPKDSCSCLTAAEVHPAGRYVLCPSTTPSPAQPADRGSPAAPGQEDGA
Put plainly: AXL kinase mobility shift assay. The method, then: (§1) The effect of the compounds on the activity of cKit, RET and AXL kinases were assessed by Mobility shift assay. • 1. 1× kinase base buffer and stop buffer for testing kinases were prepared • 1-1) 1× Kinase base buffer (50 mM HEPES, pH 7.5, 0.01% Triton X-100) • 1-2) Stop buffer (100 mM HEPES, pH 7.5, 0.015% Brij-35, 0.2% Coating Reagent #3, 50 mM EDTA) • 2. Compound and assay plate preparation: the compound was diluted to 50× of the final desired highest inhibitor concentration in reaction by 100% DMSO. 100 μl of this compound dilution was transferred to a well in a 96-well plate. For example, if the highest desired concentration was 5 μM, then 250 μM of compound DMSO solution was prepared in this step. For all compounds, the compound was serially diluted by transferring 10 μl to 70 μl of 100 DMSO in the next well and so forth for a total of 5 concentrations. 100 μl of 100% DMSO was added to two empty wells for no compound control and no enzyme control in the same 96-well plate. The plate was labeled as source plate. The intermediate plate was prepared by transferring 10 μl of compound from source plate to a new 96-well plate as the intermediate plate, adding 90 μl of 1× kinase buffer to each well of the intermediate plate, mixing the compounds in intermediate plate for 10 min on shaker. 5 μl of each well from the 96-well intermediate plate were transferred to a 384-well plate in duplicates. For example, A1 of the 96-well plate was transferred to A1 and A2 of the 384-well plate. A2 of the 96-well plate was transferred to A3 and A4 of the 384-well plate, and so on. • 4. Kinase reaction: The assay plate already contained 5 μl of compound in 10% DMSO. A 2.5× enzyme solution was prepared by adding kinases (cKit, RET, or AXL) and DTT in 1× kinase base buffer. 2.5× enzyme solution was transferred to the assay plate (by adding 10 μl of 2.5× enzyme solution to each well of the 384-well assay plate). The plate was incubated at room temperature for 10 min. 2.5× peptide solution was prepared by adding FAM-labeled peptide, ATP, MgCl2 in the 1× kinase base buffer. 2.5× peptide solution was added to the assay plate by adding 10 μl of 2.5× peptide solution to each well of the 384-well assay plate. The plate was incubated at 28° C. for the specified period of time. 25 μl of stop buffer was added to stop reaction. Data was collected on Caliper.

A further experiment has as its target RET (Homo sapiens, UniProt P07949). Put plainly: RET kinase mobility shift assay. On the procedure: as §1
The target in the next experiment is c-Kit (Homo sapiens, UniProt P10721). Put plainly: cKit kinase mobility shift assay. The method, then:
as §1

Sequence of RET (P07949 29-1114, species assumed): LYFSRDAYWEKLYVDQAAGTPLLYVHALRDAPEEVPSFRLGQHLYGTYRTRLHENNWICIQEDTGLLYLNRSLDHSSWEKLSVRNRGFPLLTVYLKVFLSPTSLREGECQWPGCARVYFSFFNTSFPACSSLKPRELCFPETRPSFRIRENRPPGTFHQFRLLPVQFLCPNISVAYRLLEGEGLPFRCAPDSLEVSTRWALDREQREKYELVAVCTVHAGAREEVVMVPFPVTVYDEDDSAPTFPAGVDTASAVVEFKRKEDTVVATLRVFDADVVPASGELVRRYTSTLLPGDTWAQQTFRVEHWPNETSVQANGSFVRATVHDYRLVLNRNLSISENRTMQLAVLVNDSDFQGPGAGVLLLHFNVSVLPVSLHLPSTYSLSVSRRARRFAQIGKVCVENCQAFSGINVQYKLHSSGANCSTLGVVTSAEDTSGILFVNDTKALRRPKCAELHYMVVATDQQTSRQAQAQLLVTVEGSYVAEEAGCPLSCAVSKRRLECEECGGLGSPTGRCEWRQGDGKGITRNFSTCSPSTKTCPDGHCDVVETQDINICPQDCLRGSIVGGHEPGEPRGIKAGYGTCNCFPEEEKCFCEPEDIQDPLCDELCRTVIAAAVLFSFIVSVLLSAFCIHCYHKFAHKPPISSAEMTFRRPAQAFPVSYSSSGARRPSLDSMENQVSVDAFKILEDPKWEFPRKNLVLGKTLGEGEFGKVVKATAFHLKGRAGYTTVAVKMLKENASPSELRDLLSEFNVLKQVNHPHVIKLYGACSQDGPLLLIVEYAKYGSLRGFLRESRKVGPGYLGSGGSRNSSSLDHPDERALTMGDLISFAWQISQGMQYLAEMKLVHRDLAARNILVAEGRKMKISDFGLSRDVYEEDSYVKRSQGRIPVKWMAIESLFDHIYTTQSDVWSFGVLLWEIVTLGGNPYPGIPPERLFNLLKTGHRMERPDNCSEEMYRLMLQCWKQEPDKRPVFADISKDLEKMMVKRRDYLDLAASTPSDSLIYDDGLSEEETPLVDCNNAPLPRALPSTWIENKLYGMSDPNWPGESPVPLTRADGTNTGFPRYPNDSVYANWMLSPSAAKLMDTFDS
Sequence of c-Kit (P10721 26-976): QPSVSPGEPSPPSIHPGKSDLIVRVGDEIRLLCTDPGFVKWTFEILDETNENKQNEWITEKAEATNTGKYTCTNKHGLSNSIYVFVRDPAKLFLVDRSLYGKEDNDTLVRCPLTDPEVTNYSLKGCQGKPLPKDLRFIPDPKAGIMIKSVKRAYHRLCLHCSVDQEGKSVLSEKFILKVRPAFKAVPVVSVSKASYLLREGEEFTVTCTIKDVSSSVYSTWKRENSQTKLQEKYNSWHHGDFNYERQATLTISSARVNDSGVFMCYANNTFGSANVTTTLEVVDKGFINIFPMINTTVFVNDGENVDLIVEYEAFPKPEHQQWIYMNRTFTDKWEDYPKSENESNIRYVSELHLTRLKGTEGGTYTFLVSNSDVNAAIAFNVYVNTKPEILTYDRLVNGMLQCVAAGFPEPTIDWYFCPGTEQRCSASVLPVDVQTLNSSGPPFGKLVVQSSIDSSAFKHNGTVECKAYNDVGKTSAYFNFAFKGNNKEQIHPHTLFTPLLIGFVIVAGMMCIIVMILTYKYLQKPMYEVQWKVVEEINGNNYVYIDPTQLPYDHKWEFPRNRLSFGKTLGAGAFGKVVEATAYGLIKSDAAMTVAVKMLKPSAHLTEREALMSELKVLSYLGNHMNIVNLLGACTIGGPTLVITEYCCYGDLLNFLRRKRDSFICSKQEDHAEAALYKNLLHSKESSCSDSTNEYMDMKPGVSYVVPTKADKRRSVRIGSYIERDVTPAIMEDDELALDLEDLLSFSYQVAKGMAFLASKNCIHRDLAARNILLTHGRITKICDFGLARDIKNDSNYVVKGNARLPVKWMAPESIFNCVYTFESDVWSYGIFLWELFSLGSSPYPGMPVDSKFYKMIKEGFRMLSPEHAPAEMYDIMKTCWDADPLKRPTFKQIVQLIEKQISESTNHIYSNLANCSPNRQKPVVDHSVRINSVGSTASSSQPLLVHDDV
Sequence of HPK1 (MAP4K1) (Q92918 whole entry, species assumed): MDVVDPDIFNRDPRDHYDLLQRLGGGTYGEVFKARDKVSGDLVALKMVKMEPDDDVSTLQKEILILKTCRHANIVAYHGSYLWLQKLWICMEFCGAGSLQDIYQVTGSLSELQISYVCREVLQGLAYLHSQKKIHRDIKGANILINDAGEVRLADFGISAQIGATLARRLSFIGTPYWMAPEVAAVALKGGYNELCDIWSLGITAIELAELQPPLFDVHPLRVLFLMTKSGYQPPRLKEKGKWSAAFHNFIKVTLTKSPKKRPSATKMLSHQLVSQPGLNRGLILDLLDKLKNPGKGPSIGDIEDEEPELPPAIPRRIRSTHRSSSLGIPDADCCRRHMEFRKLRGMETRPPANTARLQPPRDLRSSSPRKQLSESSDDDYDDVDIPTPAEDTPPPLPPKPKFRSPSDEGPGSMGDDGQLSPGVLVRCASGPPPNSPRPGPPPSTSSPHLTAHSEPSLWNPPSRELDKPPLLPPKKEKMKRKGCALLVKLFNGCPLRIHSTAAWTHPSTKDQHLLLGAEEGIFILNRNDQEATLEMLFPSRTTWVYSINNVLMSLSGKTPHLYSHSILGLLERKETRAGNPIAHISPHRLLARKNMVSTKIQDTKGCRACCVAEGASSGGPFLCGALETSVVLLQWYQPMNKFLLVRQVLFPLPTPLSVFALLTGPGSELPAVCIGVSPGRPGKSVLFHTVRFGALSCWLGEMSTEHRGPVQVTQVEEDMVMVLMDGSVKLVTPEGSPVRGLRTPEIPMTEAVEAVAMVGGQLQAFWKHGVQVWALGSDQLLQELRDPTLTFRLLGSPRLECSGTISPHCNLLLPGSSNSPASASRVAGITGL

The IC50 is the concentration at which inhibition is half-maximal. As to `CNc1ncc2c(n1)N1CCN=C1C(c1ccc(C(=O)Nc3cc(C(F)(F)F)ccn3)cc1C)=C2` [Compound 276, 3-methyl-4-(2-(methylamino)-8,9-dihydroimidazo[1′,2′:1,6]pyrido[2,3-d]pyrimidin-6-yl)-N-(4-(trifluoromethyl)pyridin-2-yl)benzamide], the IC50 was 0.1 to 10 µM against HPK1 (MAP4K1) and above 10 µM at Axl.

For `CNc1nc(C)c2c(n1)N1CCN=C1C(c1cc(NC(=O)c3cc(C(F)(F)F)ccn3)ccc1C)=C2` [Compound 122, N-(4-methyl-3-(4-methyl-2-(methylamino)-8,9-dihydroimidazo[1′,2′:1,6]pyrido[2,3-d]pyrimidin-6-yl)phenyl)-4-(trifluoromethyl)picolinamide], the IC50 on HPK1 (MAP4K1) and at RET was above 10 µM each time.

For `CNc1ncc2c(n1)N1CCN=C1C(c1cc(NC(=O)c3cc(C(F)(F)F)ccn3)ccc1F)=C2C` [Compound 121, N-(4-fluoro-3-(5-methyl-2-(methylamino)-8,9-dihydroimidazo[1′,2′:1,6]pyrido[2,3-d]pyrimidin-6-yl)phenyl)-4-(trifluoromethyl)picolinamide], the IC50 on HPK1 (MAP4K1) and at RET was 0.1 to 10 µM each time.

In the case of `CNc1ncc2c(n1)N1CCN=C1C(c1cc(NS(=O)(=O)c3cccc(C(F)(F)F)c3)c(F)cc1C)=C2` [Compound 285, N-(2-fluoro-4-methyl-5-(2-(methylamino)-8,9-dihydroimidazo[1′,2′:1,6]pyrido[2,3-d]pyrimidin-6-yl)phenyl)-3-(trifluoromethyl)benzenesulfonamide], the IC50 on c-Kit and at Axl was above 10 µM throughout.

As to `CNc1ncc2c(n1)N1CCN=C1C(c1c(C)ccc(NS(=O)(=O)c3ccccc3Cl)c1F)=C2` [Compound 287, 2-chloro-N-(2-fluoro-4-methyl-3-(2-(methylamino)-8,9-dihydroimidazo[1′,2′:1,6]pyrido[2,3-d]pyrimidin-6-yl)phenyl)benzenesulfonamide], the IC50 at c-Kit was 0.1 to 10 µM; on Axl, below 0.1 µM.

For the molecule `CNc1ncc2c(n1)N1CCN=C1C(c1c(C)ccc(NC(=O)Nc3ccccc3Cl)c1F)=C2` [Compound 336, 1-(2-chlorophenyl)-3-(2-fluoro-4-methyl-3-(2-(methylamino)-8,9-dihydroimidazo[1′,2′:1,6]pyrido[2,3-d]pyrimidin-6-yl)phenyl)urea], the figures for the IC50 at c-Kit and on Axl were 0.1 to 10 µM and above 10 µM, respectively.

Consider `CNc1ncc2c(n1)N1CCN=C1C(c1cc(NC(=O)Nc3cc(C(F)(F)F)ccc3Cl)c(F)cc1C)=C2` [Compound 335, 1-(2-chloro-5-(trifluoromethyl)phenyl)-3-(2-fluoro-4-methyl-5-(2-(methylamino)-8,9-dihydroimidazo[1′,2′:1,6]pyrido[2,3-d]pyrimidin-6-yl)phenyl)urea], for which the IC50 at c-Kit was below 0.1 µM; on Axl it was above 10 µM.

Turning to `Cc1ccc(Nc2ncc3c(n2)N2CCN=C2C(c2cc(NC(=O)c4cc(C(F)(F)F)ccn4)ccc2C)=C3)cn1` [Compound 208, N-(4-methyl-3-(2-((6-methylpyridin-3-yl)amino)-8,9-dihydroimidazo[1′,2′:1,6]pyrido[2,3-d]pyrimidin-6-yl)phenyl)-4-(trifluoromethyl)picolinamide], the IC50 on HPK1 (MAP4K1) and on RET was below 0.1 µM each time.

Turning to `Cc1ccc(NC(=O)c2cc(C(F)(F)F)ccn2)cc1C1=Cc2cnc(NCCF)nc2N2CCN=C12` [Compound 111, N-(3-(2-((2-fluoroethyl)amino)-8,9-dihydroimidazo[1′,2′:1,6]pyrido[2,3-d]pyrimidin-6-yl)-4-methylphenyl)-4-(trifluoromethyl)picolinamide], the IC50 was 0.1 to 10 µM on HPK1 (MAP4K1) and below 0.1 µM at RET.

For `CNc1ncc2c(n1)N1CCN=C1C(c1cc(NC(=O)Nc3cccc(C(F)(F)F)c3)c(F)cc1C)=C2` [Compound 330, 1-(2-fluoro-4-methyl-5-(2-(methylamino)-8,9-dihydroimidazo[1′,2′:1,6]pyrido[2,3-d]pyrimidin-6-yl)phenyl)-3-(3-(trifluoromethyl)phenyl)urea], the values for the IC50 at c-Kit, against HPK1 (MAP4K1) and at Axl were below 0.1 µM, 0.1 to 10 µM and above 10 µM, respectively.

For `CNc1ncc2c(n1)N1CCN=C1C(c1cc(NC(=O)Nc3cc(C(F)(F)F)ccc3F)c(F)cc1C)=C2` [Compound 333, 1-(2-fluoro-4-methyl-5-(2-(methylamino)-8,9-dihydroimidazo[1′,2′:1,6]pyrido[2,3-d]pyrimidin-6-yl)phenyl)-3-(2-fluoro-5-(trifluoromethyl)phenyl)urea], the results for the IC50 on c-Kit and at Axl were below 0.1 µM and above 10 µM, respectively.

Regarding `CNc1ncc2c(n1)N1C(=NC[C@@H]1C)C(c1cc(NC(=O)c3cc(C(F)(F)F)ccn3)ccc1C)=C2` [Compound 130, (S)—N-(4-methyl-3-(9-methyl-2-(methylamino)-8,9-dihydroimidazo[1′,2′:1,6]pyrido[2,3-d]pyrimidin-6-yl)phenyl)-4-(trifluoromethyl)picolinamide], the IC50 on HPK1 (MAP4K1) and at RET was below 0.1 µM each time.

Turning to `CNc1ncc2c(n1)N1CCN=C1C(c1cc(NC(=O)c3cn(C(C)C)c(=O)n(-c4ccc(F)cc4)c3=O)ccc1C)=C2` [Compound 193, 3-(4-fluorophenyl)-1-isopropyl-N-(4-methyl-3-(2-(methylamino)-8,9-dihydroimidazo[1′,2′:1,6]pyrido[2,3-d]pyrimidin-6-yl)phenyl)-2,4-dioxo-1,2,3,4-tetrahydropyrimidine-5-carboxamide], the IC50 is 0.1 to 10 µM on HPK1 (MAP4K1) and above 10 µM on Axl.

As for `CNc1ncc2c(n1)N1CCN=C1C(c1cc(NS(=O)(=O)c3ccccc3F)ccc1C)=C2` [Compound 289, 2-fluoro-N-(4-methyl-3-(2-(methylamino)-8,9-dihydroimidazo[1′,2′:1,6]pyrido[2,3-d]pyrimidin-6-yl)phenyl)benzenesulfonamide], the IC50 on c-Kit and at Axl was above 10 µM in each case.

For `CNc1ncc2c(n1)N1C(=NC[C@H]1C)C(c1cc(NC(=O)c3cc(C(F)(F)F)ccn3)ccc1C)=C2` [Compound 129, (R)—N-(4-methyl-3-(9-methyl-2-(methylamino)-8,9-dihydroimidazo[1′,2′:1,6]pyrido[2,3-d]pyrimidin-6-yl)phenyl)-4-(trifluoromethyl)picolinamide], the 50% inhibitory concentration (IC50) on HPK1 (MAP4K1) and on RET was 0.1 to 10 µM each time.

For `CNc1ncc2c(n1)N1CCN=C1C(c1cc(NC(=O)c3cc(C(F)(F)F)ccn3)ccc1C)=C2C` [Compound 120, N-(4-methyl-3-(5-methyl-2-(methylamino)-8,9-dihydroimidazo[1′,2′:1,6]pyrido[2,3-d]pyrimidin-6-yl)phenyl)-4-(trifluoromethyl)picolinamide], the IC50 at HPK1 (MAP4K1) and at RET was 0.1 to 10 µM in each case.
